According to patent publication US20250213707A1, “COMPOUND FOR INCREASING EFFICACY OF ONCOLYTIC VIRUSES” (ABLEVIA BIOTECH GMBH, priority 2022, published 2025):

Test system: IgG from human donors (anti-AAV antibodies)
Assay: Screen for anti-AAV antibodies in human sera, 2452 linear 15-amino-acid AAV peptides on microarrays (Table 1)
Type: binding
Parameters: key to group I: X: the deduplicated aggregate of the respective top 10 peptide hits for each donor was compiled and designated as group I; key to group II: X: the deduplicated aggregate of the respective top 25 peptide hits for each donor was compiled and designated as group II; key to group III: X: the deduplicated aggregate of the respective top 50 peptide hits for each donor was compiled and designated as group III
Conditions: for group I: membership in deduplicated aggregate of top 10 peptide hits for each donor
Experimental: 2452 linear peptides derived from the sequences of 16 different AAVs and with a sequence length of 15 amino-acids each were synthesized.
Samples obtained from human donors were screened for antibodies against these AAV-derived peptides immobilized on microarrays. To this end, IgG was prepared from blood obtained from the human donors by protein G purification. Each IgG sample was incubated with the peptide microarrays and Ig binding signals were detected by fluorescence. All antibody binding signals to the peptides on the arrays were background subtracted and ranked for each sample and a deduplicated aggregate of the respective top 250 peptide hits for each donor with the corresponding protein sequence of origin (as obtained from UniProt or other sources) was compiled (designated as group IV). Further, the deduplicated aggregate of the respective top 50 peptide hits for each donor was compiled and designated as group III. Further, the deduplicated aggregate of the respective top 25 peptide hits for each donor was compiled and designated as group II. Finally, the deduplicated aggregate of the respective top 10 peptide hits for each donor was compiled and designated as group I.
Altogether, group I contains 110 distinct peptide hits (assigned to the corresponding AAV vectors in Table 1), group II contains 289 distinct peptide hits, group III contains 428 distinct peptide hits and group IV contains 1271 distinct peptide hits. Evidently, group I is a subset of group II which in turn is a subset of group III which in turn is a subset of group IV. Groups I-IV correspond to the top 4.4%, […], 17.5% and 51.8%, respectively, of all peptides screened.

[1] = human donor IgG binding to linear 15-amino-acid AAV peptides on microarray, fluorescence
[2] = membership in deduplicated aggregate of top 25 peptide hits for each donor, human donor IgG binding to linear 15-amino-acid AAV peptides on microarray, fluorescence
[3] = membership in deduplicated aggregate of top 50 peptide hits for each donor, human donor IgG binding to linear 15-amino-acid AAV peptides on microarray, fluorescence
[4] = X = peptide belongs to the deduplicated aggregate of the top 50 peptide hits for each donor, linear 15-amino-acid AAV peptides, IgG binding by fluorescence
[5] = X = peptide in the deduplicated aggregate of the top 50 peptide hits for each donor (top 17.5% of all peptides screened), linear 15-amino-acid AAV peptides on microarrays, human donor IgG, fluorescence

Substance | group I [1] | group II [2] | group III [3] | group III [4] | other results
PPQILIKNTPVPAD [SEQ ID NO: 1959] | X | X | X |  | 
383 (FNGLDKGEPVNAADA; REGION 1..15: note = peptide derived from viral capsid protein) [compound 383] |  |  |  | X | 
DEEEIKATNPVATE (REGION 1..14: note = peptide derived from viral capsid protein) [SEQ ID NO: 1932] | X | X | X |  | 
330 (DSGDNPYLKYNHADA; REGION 1..15: note = peptide derived from viral capsid protein) [compound 330] |  |  |  | X | 
DKDKFFPMSGVMIF (REGION 1..14: note = peptide derived from viral capsid protein) [SEQ ID NO: 1933] | X | X | X |  | 
NAADAAALEHDKAY [SEQ ID NO: 1956] | X | X | X |  | 
475 (AGPPKPKPNQQHQDQ; REGION 1..15: note = peptide derived from viral capsid protein) [compound 475] |  |  |  |  | group III [5]: X
353 (TPWGYFDFNRFHCHF; REGION 1..15: note = peptide derived from viral capsid protein) [compound 353] |  |  |  | X | 
354 (YFDFNRFHCHFSPRD; REGION 1..15: note = peptide derived from viral capsid protein) [compound 354] |  |  |  | X | 
346 (TVAVNLQSSSTDPAT; REGION 1..15: note = peptide derived from viral capsid protein) [compound 346] |  |  |  | X | 
335 (VKEVTQNDGTTTIAN; REGION 1..15: note = peptide derived from viral capsid protein) [compound 335] |  |  |  | X | 
445 (NNSNFAWTAGTKYHL; REGION 1..15: note = peptide derived from viral capsid protein) [compound 445] |  |  |  |  | group III [5]: X
431 (EIKTTNPVATEEYGI; REGION 1..15: note = peptide derived from viral capsid protein) [compound 431] |  |  |  |  | group III [5]: X
LQQQNAAPIVGAVN (REGION 1..14: note = peptide derived from viral capsid protein) [SEQ ID NO: 1955] | X | X | X |  | 
NPGVAMATHKDDEE [SEQ ID NO: 1957] | X | X | X |  | 
297 (DSLVNPGVAMATHDD; REGION 1..15: note = peptide derived from viral capsid protein) [compound 297] |  |  |  | X | 
447 (YNNHLYKQISNGTSG; REGION 1..15: note = peptide derived from viral capsid protein) [compound 447] |  |  |  |  | group III [5]: X
QLPYVLGSAHQGCL (REGION 1..14: note = peptide derived from viral capsid protein) [SEQ ID NO: 1962] | X | X | X |  | 
SQSLDRLMNPLIDQ (REGION 1..14: note = peptide derived from viral capsid protein) [SEQ ID NO: 1966] | X | X | X |  | 
370 (FITQYSTGQVSVEIE; REGION 1..15: note = peptide derived from viral capsid protein) [compound 370] |  |  |  | X | 
291 (KDNVDYSSVMLTSEE; REGION 1..15: note = peptide derived from viral capsid protein) [compound 291] |  |  |  | X | 

Substance | group I [1] | group II [2] | group III [3] | group III [4] | other results
DSQWLGDRVITTST (REGION 1..14: note = peptide derived from viral capsid protein) [SEQ ID NO: 1892] | X | X | X |  | 
286 (VLEPFGLVEEGAKTA; REGION 1..15: note = peptide derived from viral capsid protein) [compound 286] |  |  |  | X | group II (X = peptide belongs to the deduplicated aggregate of the top 25 peptide hits for each donor, linear 15-amino-acid AAV peptides, IgG binding by fluorescence): X
316 (EPVKTAPGKKRPVEH; REGION 1..15: note = peptide derived from viral capsid protein) [compound 316] |  |  |  | X | 
313 (QGCLPPFPADVFMVP; REGION 1..15: note = peptide derived from viral capsid protein) [compound 313] |  |  |  | X | 
ESVPDPQPIGEPPA [SEQ ID NO: 1947] | X | X | X |  | 
DWLEDNLSEGIREW (REGION 1..14: note = peptide derived from viral capsid protein) [SEQ ID NO: 1943] | X | X | X |  | 
DKAYDRQLDSGDNP (REGION 1..14: note = peptide derived from viral capsid protein) [SEQ ID NO: 1926] | X | X | X |  | 
357 (SLDRLMNPLIDQYLY; REGION 1..15: note = peptide derived from viral capsid protein) [compound 357] |  |  |  | X | 
SGGSTNDNTYFGYS [SEQ ID NO: 1965] | X | X | X |  | 
411 (ILIKNTPVPADPPTA; REGION 1..15: note = peptide derived from viral capsid protein) [compound 411] |  |  |  |  | group III [5]: X
406 (NNNSEFAWPGASSWA; REGION 1..15: note = peptide derived from viral capsid protein) [compound 406] |  |  |  |  | group III [5]: X
382 (FHSSYAHSQSLDRLM; REGION 1..15: note = peptide derived from viral capsid protein) [compound 382] |  |  |  | X | 
GQNNNSNFAWTAGT [SEQ ID NO: 1936] | X | X | X |  | 
314 (EHDKAYDRQLDSGDN; REGION 1..15: note = peptide derived from viral capsid protein) [compound 314] |  |  |  | X | 
290 (NVDFAVNTDGTYSEP; REGION 1..15: note = peptide derived from viral capsid protein) [compound 290] |  |  |  | X | 
476 (PSTSSDAEAGPSGSQ; REGION 1..15: note = peptide derived from viral capsid protein) [compound 476] |  |  |  |  | group III [5]: X
408 (STTVTQNNNSEFAWP; REGION 1..15: note = peptide derived from viral capsid protein) [compound 408] |  |  |  |  | group III [5]: X
GTNTMATGSGAPMA (REGION 1..14: note = peptide derived from viral capsid protein) [SEQ ID NO: 1927] | X | X | X |  | 
PGAPKPKANQQKQD [SEQ ID NO: 1958] | X | X | X |  | 
326 (PVATEQYGSVSTNLQ; REGION 1..15: note = peptide derived from viral capsid protein) [compound 326] |  |  |  | X | 
